Measured values reported in patent US20040266718A1, “Inhibition of specific histone deacetylase isoforms” (priority 2001, published 2004).
One block for each compound: values may come before it. d = 2'-deoxy (DNA); m = 2'-O-methyl

Assays:
[1] = tested on: MDAmb231; assay: cell growth analysis (trypan blue cell count), MDAmb231; assay type: cell-based, human; settings: 50 nM, 72 hours
Protocol: (§1) Briefly, human A549 and/or T24 human bladder carcinoma cells were seeded in 10 cm tissue culture dishes one day prior to oligonucleotide treatment. The cell lines were obtained from the American Type Culture Collection (ATCC) (Manassas, Va.) and were grown under the recommended culture conditions. Before the addition of the oligonucleotides, cells were washed with PBS (phosphate buffered saline). Next, lipofectin transfection reagent (GIBCO BRL Mississauga, Ontario, Calif.), at a concentration of 6.25 μg/ml, was added to serum free OPTIMEM medium (GIBCO BRL, Rockville, Md.), which was then added to the cells. The oligonucleotides to be screened were then added directly to the cells (i.e., one oligonucleotide per plate of cells). Mismatched oligonucleotides were used as controls. The same concentration of oligonucleotide (e.g., 50 nM) was used per plate of cells for each oligonucleotide tested.
(§2) In order to determine the effect of HDAC OSDNs on cell growth and cell death through apoptosis, A549 or T24 cells, MDAmb231 cells, and HMEC cells (ATCC, Manassas, Va.) were treated with HDAC OSDNs as previously described.
(§3) Cells were harvested and cell numbers counted by trypan blue exclusion using a hemocytometer. Percentage of inhibition was calculated as (100—AS cell numbers/control cell numbers)%.

[2] = tested on: A549; assay: apoptosis, Cell Death Detection ELISA, A549; assay type: cell-based, human; settings: OSDN
Protocol: as §2
(§4) For the apoptosis study, cells were analyzed using the Cell Death Detection ELISA^Plus kit (Roche Diagnostic GmBH, Mannheim, Germany) according to the manufacturer's directions. Typically, 10,000 cells were plated in 96-well tissue culture dishes for 2 hours before harvest and lysis. Each sample was analyzed in duplicate. ELISA reading was done using a MR700 plate reader (DYNEX Technology, Ashford, Middlesex, England) at 410 nm. The reference was set at 490 nm.

[3] = tested on: T24; assay: apoptosis, Cell Death Detection ELISA, T24; assay type: cell-based, human; settings: OSDN
Protocol: as §2, §4

[4] = tested on: MDAmb231; assay: apoptosis, Cell Death Detection ELISA, MDAmb231; assay type: cell-based, human; settings: OSDN
Protocol: as §2, §4

[5] = tested on: HMEC; assay: apoptosis, Cell Death Detection ELISA, HMEC; assay type: cell-based, human; settings: OSDN, normal cells
Protocol: as §2, §4

[6] = tested on: human HDAC-2 RNA; assay: antisense screen by Northern blot in T24 cells, HDAC-2; assay type: cell-based; settings: screened as above (T24 cells, 100 nM, 24 hours)
Protocol: Twenty-four phosphorothioate ODNs containing sequences complementary to the 5′ or 3′ UTR of the human HDAC-2 gene (GenBank Accession No. U31814) were screened as above. […] HDAC-2 MM was created as a control; compared to the antisense oligo, it contains a 7-base mismatch.
as §1
(§5) Cells were harvested, and total RNAs were analyzed by Northern blot analysis. Briefly, total RNA was extracted using RNeasy miniprep columns (QIAGEN). […]

[7] = tested on: human cancer cells; assay: cell growth and apoptosis of human cancer cells; assay type: cell-based
Protocol: as §2, §4, §3

[8] = tested on: human colon cancer HCT116 cells; assay: MTT assay of cell proliferation; assay type: cell-based; settings: HCT-116, 72 hours
Protocol: Two thousand (2,000) human colon cancer HCT116 cells (ATCC, Manassas, Va. were used in an MTT (3-[4,5-dimethylthiazol-2-yl]-2,5 diphenyl tetrazolium bromide) assay to quantitatively determine cell proliferation and cytotoxicity. Typically, HCT116 cells were plated into each well of the 96-well tissue culture plate and left overnight to attach to the plate. Compounds at various concentrations were added into the culture media (final DMSO concentration 1%) and incubated for 72 hours. MTT solution (obtained from Sigma as powder) was added and incubated with the cells for 4 hours at 37° C. in incubator with 5% CO2. During the incubation, viable cells convert MTT to a water-insoluble formazan dye. Solubilizing buffer (50% N,N-dimethylformamide, 20% SDS, pH 4.7) was added to cells and incubated for overnight at 37C in incubator with 5% CO2. Solubilized dye was quantitated by calorimetric reading at […] using a reference of […]. Optical density values were converted to cell number values by comparison to a standard growth curve for each cell line.

[9] = tested on: Human cancer HCT116 cells; assay: cell cycle arrest by FACS; assay type: cell-based; settings: HCT116, 16 hours; concentration to induce a (G2+M)/S ratio of 2.5
Protocol: Human cancer HCT116 cells were plated at 2×10^5 per 10-cm dish and were left to attach to the dish overnight in the incubator. Cells were treated with small molecule inhibitors at various concentrations (1 uM and 10 uM, typically, dissolved in DMSO) for 16 hours. Cells were harvested by trypsinization and washed once in 1×PBS (phosphate buffered saline). The cells were resuspended in about 200 ul 1×PBS and were fixed by slowly adding 1 ml 70% ethanol at −20° C. and were left at least overnight at −20° C. Fixed cells were centrifuged at low speed (1,000 rpm) for 5 minutes, and the cell pellets were washed again with 1×PBS. Nucleic acids from fixed cells were incubated in a staining solution (0.1% (w/v) glucose in 1×PBS containing 50 ug/ml propidium iodide) (Sigma-Aldridge, Mississauga, Ontario, CA) and RNase A (final 100 units/ml, (Sigma-Aldridge, Mississauga, Ontario, CA) for at least 30 minutes in the dark at 25° C. DNA content was measured by using a fluorescence-activated cell sorter (FACS) machine. Treatment of cells with all HDAC small molecule inhibitors in Table 2 results in a significant accumulation of cancer cell in G2/M phase of the cell cycle and concomitantly reduce the accumulation of cancer cells in S phase of the cell cycle. The ratio of cells in G2/M phase vs. cells in the S. phase was determined. […]

[10] = tested on: human HDAC-1 RNA; assay: antisense screen by Northern blot in T24 cells, HDAC-1; assay type: cell-based; settings: 100 nM, 24 hours
Protocol: as §1
Cells were harvested, and total RNAs were analyzed by Northern blot analysis. Briefly, total RNA was extracted using RNeasy miniprep columns (QIAGEN). Ten to twenty μg of total RNA was run on a formaldehyde-containing 1% agarose gel with 0.5 M sodium phosphate (pH 7.0) as the buffer system. RNAs were then transferred to nitrocellulose membranes and hybridized with the indicated radiolabeled DNA probes. Autoradiography was performed using conventional procedures.

[11] = tested on: cyclin B1 in Human cancer A549 cells; assay: Western blot of cyclin B1 in A549 cells; assay type: cell-based; settings: 48 hours, FIG. 16
Protocol: (§6) Human cancer A549 cells were treated with AS1, AS2 or MM oligo directed human HDAC1 for 48 hours. Total cell lysates were harvested and analyzed by Western blot using antibodies against human HDAC1, cyclin B1, cyclin A and actin (all from Santa Cruz Biotechnology, Inc., Santa Cruz, Calif.). […] (FIG. 16)

[12] = tested on: cyclin A in Human cancer A549 cells; assay: Western blot of cyclin A in A549 cells; assay type: cell-based; settings: 48 hours, FIG. 16
Protocol: as §6

[13] = tested on: human HDAC-5 RNA; assay: antisense screen by Northern blot in T24 cells, HDAC-5; assay type: cell-based; settings: screened as above (T24 cells, 100 nM, 24 hours)
Protocol: Thirteen phosphorothioate ODNs containing sequences complementary to the 5′ or 3′ untranslated regions of the human HDAC-5 gene (GenBank Accession No. AF039691) were screened as above.
as §1
Cells were harvested, and total RNAs were analyzed by Northern blot analysis. Briefly, total RNA was extracted using RNeasy miniprep columns (QIAGEN). Ten to twenty μg of total RNA was run on a formaldehyde-containing 1% agarose gel with 0.5 M sodium phosphate (pH 7.0) as the buffer system. […]

[14] = tested on: A549; assay: cell growth analysis (trypan blue cell count), A549; assay type: cell-based, human; settings: 50 nM, 72 hours
Protocol: as §1, §2, §3

[15] = tested on: T24; assay: cell growth analysis (trypan blue cell count), T24; assay type: cell-based, human; settings: 50 nM, 72 hours
Protocol: as §1, §2, §3

[16] = tested on: HMEC; assay: cell growth analysis (trypan blue cell count), HMEC; assay type: cell-based, human; settings: 50 nM, 72 hours, normal cells
Protocol: as §1, §2, §3

[17] = tested on: human HDAC-3 RNA; assay: antisense screen by Northern blot in T24 cells, HDAC-3; assay type: cell-based; settings: screened as above (T24 cells, 100 nM, 24 hours)
Protocol: Twenty-one phosphorothioate ODNs containing sequences complementary to the 5′ or 3′ UTR of the human HDAC-3 gene (GenBank Accession No. AF039703) were screened as above. […] HDAC-3 MM oligonucleotide was created as a control; compared to the antisense oligonucleotide, it contains a 6-base mismatch.
as §1, §5

[18] = tested on: human HDAC-4 RNA; assay: antisense screen by Northern blot in T24 cells, HDAC-4; assay type: cell-based; settings: screened as above (T24 cells, 100 nM, 24 hours)
Protocol: Seventeen phosphorothioate ODNs containing sequences complementary to the 5′ or 3′ UTR of the human HDAC-4 gene (GenBank Accession No. AB006626) were screened as above. […] HDAC-4 MM1 and MM2 oligonucleotides were created as controls; compared to the antisense oligonucleotides, they each contain a 6-base mismatch.
as §1, §5

Compound: HDAC-2 AS: antisense oligonucleotide to human HDAC2, 5′-GCTGAGCTGTTCTGATTTGG-3′ (SEQ ID NO:20) (chemistry not given here)
Growth Inhibition (AS vs. MM) MDAmb231 [1]: − (no inhibition) | Apoptosis After 48 Hour Treatment A549 [2]: − (< = 2x fold over non-specific background) | Apoptosis After 48 Hour Treatment T24 [3]: − (< = 2x fold over non-specific background) | Apoptosis After 48 Hour Treatment MDAmb231 [4]: − (< = 2x fold over non-specific background) | Apoptosis After 48 Hour Treatment HMEC [5]: − (< = 2x fold over non-specific background) | antisense activity to human HDAC-2 (RNA expression, Northern blot) [6]: antisense activity | cancer cell growth inhibition [7]: minimal effect

EC50 [8]: 3000 nM
Compound: CC(/C=C/C(=O)Nc1ccccc1N)=C\C(C)C(=O)c1ccc(N(C)C)cc1 (stereo not drawn) [Compound 1]
Cell Cycle Arrest EC [9]: 2 µM

Compound: HDAC-1 AS1: antisense oligonucleotide to human HDAC1, 5′-GAAACGTGAGGGACTCAGCA-3′ (SEQ ID NO:17) (chemistry not given here)
Apoptosis After 48 Hour Treatment A549 [2]: + (2-3X fold) | Apoptosis After 48 Hour Treatment T24 [3]: − (< = 2x fold over non-specific background) | Apoptosis After 48 Hour Treatment HMEC [5]: − (< = 2x fold over non-specific background) | antisense activity to human HDAC-1 (RNA expression, Northern blot) [10]: antisense activity | expression of cyclin B1 [11]: repress expression | expression of cyclin A [12]: repress expression

Compound: HDAC-1 AS2: antisense oligonucleotide to human HDAC1, 5′-GGAAGCCAGAGCTGGAGAGG-3′ (SEQ ID NO:18) (chemistry not given here)
antisense activity to human HDAC-1 (RNA expression, Northern blot) [10]: antisense activity | expression of cyclin B1 [11]: repress expression | expression of cyclin A [12]: repress expression

Compound: HDAC-5 AS: antisense oligonucleotide to human HDAC5, 5′-CTTCGGTCTCACCTGCTTGG-3′ (SEQ ID NO:28) (sugars from the 5' end m4 d12 m4, all phosphorothioate, methylation of C and T or U not given here)
antisense activity to human HDAC-5 (RNA expression, Northern blot) [13]: antisense activity

Compound: HDAC-3 AS: antisense oligonucleotide to human HDAC3, 5′-CGCTTTCCTTGTCATTGACA-3′ (SEQ ID NO:22) (chemistry not given here)
Growth Inhibition (AS vs. MM) A549 [14]: − (no inhibition) | Growth Inhibition (AS vs. MM) T24 [15]: − (no inhibition) | Growth Inhibition (AS vs. MM) MDAmb231 [1]: − (no inhibition) | Growth Inhibition (AS vs. MM) HMEC [16]: − (no inhibition) | Apoptosis After 48 Hour Treatment A549 [2]: − (< = 2x fold over non-specific background) | Apoptosis After 48 Hour Treatment T24 [3]: − (< = 2x fold over non-specific background) | Apoptosis After 48 Hour Treatment MDAmb231 [4]: − (< = 2x fold over non-specific background) | Apoptosis After 48 Hour Treatment HMEC [5]: − (< = 2x fold over non-specific background) | antisense activity to human HDAC-3 (RNA expression, Northern blot) [17]: antisense activity | growth arrest and apoptosis of human cancer cells ([7]; text summary of FIGS. 11-13, Tables 4 and 5): no effect

Compound: HDAC-4 AS2: antisense oligonucleotide to human HDAC4, 5′-TACAGTCCATGCAACCTCCA-3′ (SEQ ID NO:26) (sugars from the 5' end m4 d12 m4, all phosphorothioate, methylation of C and T or U not given here)
antisense activity to human HDAC-4 (RNA expression, Northern blot) [18]: antisense activity
